Data set [1] relates to human acute myelogenous leukemia cell line HL-60. In words: Ability to induce differentiation of HL-60 cells (oxygen radical production after phorbol ester stimulation, WST-1). In kind it is cell-based. As to conditions: 72 hours incubation, then WST-1 and phorbol 12,13-didecanoate for 4 hours, absorbance at 450, read-out: EC50 (50%-maximal effect concentration), induction of HL-60 differentiation. From the text: It has been known that human acute myelogenous leukemia cell line HL-60 is differentiated into a neutrophil-like cell by active form of vitamin D. Thus, the cells after the differentiation begin to express a surface marker such as CD11 and CD32 and, at the same time, they produce oxygen radical by stimulation with a phorbol ester. In this test, the above-mentioned property was utilized to assess an ability to induce the differentiation of HL-60 cell of the compounds of the present invention mentioned in the Examples and maxacalcitol using as an indicator the amount of oxygen radical produced by stimulation with a phorbol ester whereby a vitamin D3 activity was compared and investigated. When commercially available reagents and kits were used, they were used according to the indications attached thereto.
(Procedure) HL-60 cells (supplied from ATCC) were seeded on a 96-well plate at 5×10^3 cells/100 μL/well and a test compound in two-fold dilution series from 10^−7 M was added to the second to the twelfth rows (maximum concentration: the second row). The first row was used for blank. Maxacalcitol was added to lines A and B and the compound of the present invention was added to lines C and D. After incubation for 72 hours under a moisturized condition in the presence of 5% CO2 at 37° C. using a CO2 incubator, 101 μL of PBS containing 50 mM WST-1 (manufactured by Takara Bio) and 10 μM phorbol 12,13-didecanoate (manufactured by Sigma) were added to each well followed by incubating for 4 hours more. Absorbance (reference wavelength: 655 nM) at 450 nM of a WST-1 formazan dye generated by conversion from WST-1 by oxygen radical produced from the differentiated HL-60 cells was measured by a Benchmark microplate reader (manufactured by BioRad). An absorbance meter control software MPM 3 (manufactured by BioRad) was used and, from a concentration-absorbance curve, the 50%-maximal effect concentration (hereinafter, referred to as “EC50”) of each was determined by a logistic curve regression.

Data set [2] is described as follows: Action to raise calcium concentration in serum, repeated percutaneous administration. As to conditions: male SD rats, percutaneous 33 μg/200 μL/kg/day once daily for seven days, blood 24 hours after final administration. In kind it is in vivo, rat. How it is done: A solution of the compound of the present invention mentioned in Example 1 or maxacalcitol in ethanol containing 0.3% of DMSO was repeatedly subjected to a percutaneous administration (33 μg/200 μL/kg/day) for seven days once daily onto the back of male rats (7 weeks of age) of the SD strain. An ethanol solution containing 0.3% of DMSO was administered to a control group. At 24 hours after the final administration, blood was collected and calcium concentration in serum was measured.

The nature of data set [3]: Action to raise the urinary excretion of calcium (1), repeated percutaneous administration. As to conditions: male SD rats, percutaneous 0.33, 3.3 and 33 μg/kg/day once daily for three days, urine collected every 24 hours, compared with control. In kind it is in vivo, rat. On the procedure: Open triangles show a control; open squares show the case where 0.33 μg/kg of the compound of Example 1 was administered; open rhombuses show the case where 3.3 μg/kg of the compound of Example 1 was administered; open circles show the case where 33 μg/kg of the compound of Example 1 was administered; black squares show the case where 0.33 μg/kg of maxacalcitol was administered; black rhombuses show the case where 3.3 μg/kg of maxacalcitol was administered; and black circles show the case where 33 μg/kg of maxacalcitol was administered.
A solution of the compound of the present invention mentioned in Example 1 or maxacalcitol in ethanol containing 0.3% of DMSO was repeatedly subjected to a percutaneous administration (0.33, 3.3 and 33 μg/200 μl/kg/day) for three days once daily onto the back of male rats (7 weeks of age) of the SD strain. An ethanol solution containing 0.3% of DMSO was administered to a control group. Calcium concentration in urine collected every 24 hours after administration on each day was measured and multiplied by the amount of urine to calculate the urinary excretion of calcium.

A short description of data set [4]: Metabolic rate in human liver microsome. In kind it is in vitro ADME. As to conditions: pooled human liver microsome, 1 mg/mL protein, NADPH production system, pH 7.4, 37° C., HPLC. How it is done: Metabolic rates of the compounds of the present invention mentioned in Examples and maxacalcitol in human liver microsome were compared and investigated.
As to the pooled human liver microsome (HHM-0323), those manufactured by Tissue Transformation Technologies were used. A 0.25M potassium phosphate buffer (pH 7.4) (200 μL), 5 μL of a 250 μM solution of each compound to be tested in DMSO, 50 μL of an NADPH production system (where 20 mg of (β-NADP^+, 70 mg of glucose-6-phosphate, 40 units of glucose-6-phosphate dehydrogenase and 20 mg of magnesium chloride were dissolved in 1 mL of distilled water) and 220 μL of distilled water were added to a microtube and the mixture was subjected to a preincubation for 5 minutes at 37° C. Reaction was started by addition of 25 μL of human liver microsome (final concentration of protein: 1 mg/mL). Incubation was performed for 2, 10, 30 or 60 minutes and the reaction was stopped by addition of 500 μL of acetonitrile. After centrifugation at 13,000 rpm for 5 minutes, each test compound in the supernatant (25 μL) was measured by an HPLC under the following conditions.
Inertsil ODS-3 (4.6×150 mm; GL Science) was used as a column. With regard to mobile phase, a solution A (acetonitrile/0.1% aqueous solution of ammonium acetate=10/90) and a solution B (acetonitrile/0.1% aqueous solution of ammonium acetate=90/10) were used under the linear gradient conditions mentioned in Table 4. Column temperature, flow rate and wavelength for detection were set at 40° C., 1.0 mL/min. and UV 270 nm, respectively.
From the result of measurement by the above-mentioned HPLC, metabolic rates of the test compounds were calculated.

A short description of data set [5]: Action to raise the urinary excretion of calcium (2), intravenous administration. In kind it is in vivo, rat. As to conditions: male SD rats, intravenous 22.4 nmol/kg; for Urinary excretion of calcium: urine collected during 24 hours after administration; for Ratio of urinary excretion of calcium (to Control): urine collected during 24 hours, relative to control group. How it is done:
The compound of the present invention mentioned in Examples 3 or 8, or maxacalcitol (22.4 nmol/kg) was subjected to an intravenous administration to male rats (7 weeks of age) of the SD strain. A physiological saline containing 0.1% of Triton X 100 was administered to a control group. Calcium concentration in urine collected during 24 hours after the administration was measured and urinary excretion of calcium ([calcium concentration in urine]×[amount of urine]) and ratio of urinary excretion of calcium based on the control group ([calcium amount in urine upon administration of the compound to be tested]/[calcium amount in urine in the control group]) were calculated.

As for `C=C1/C(=C\C=C2/CCC[C@]3(C)[C@@H]([C@H](C)OC(=O)CCC(C)(C)O)CC[C@@H]23)C[C@@H](O)C[C@@H]1O` [Compound of Example 1, (1S,3R,20S)-20-(4-Hydroxy-4-methyl-pentanoyloxy)-9,10-secopregna-5Z,7E,10(19)-trien-1,3-diol], the EC50 in data set [1] worked out at 2 nM. In data set [2], the “Calcium Concentration in Serum” value is 11.8 mg/dL. In data set [3], the “Urinary excretion of calcium (FIG. 1)” value was “no significant increase in urinary excretion of calcium”. Moreover, the “Metabolic Rate” value in data set [4] was 78 pmol/min/mg.

For the molecule `C=C1C(=CC=C2CCCC3(C)C2CCC3C(C)OC(=O)CCCC(C)(C)O)CC(O)CC1O` [Compound of Example 3, (1S,3R,20S)-20-(5-Hydroxy-5-methylhexanoyloxy)-9,10-secopregna-5Z,7E,10(19)-trien-1,3-diol], in data set [1], the EC50 was 2.6 nM. In data set [5], the “Urinary excretion of calcium” value amounted to 0.66 mg and the “Ratio of urinary excretion of calcium (to Control)” value came to 93%. Also, in data set [4], the “Metabolic Rate” value came to 22 pmol/min/mg.

In the case of `C=C1C(=CC=C2CCCC3(C)C2CCC3C(C)OC(=O)CC(C)(O)C(F)(F)F)CC(O)CC1O` [Compound of Example 4, (1S,3R,20S)-20-(4,4,4-Trifluoro-3-hydroxy-3-methylbutanoyloxy)-9,10-secopregna-5Z,7E,10(19)-trien-1,3-diol], the EC50 in data set [1] came out at 0.21 nM.

As to `C=C1C(=CC=C2CCCC3(C)C2CCC3C(C)OC(=O)CC(O)C(C)C)CC(O)CC1O` [Compound of Example 5, (1S,3R,20S)-20-(3-Hydroxy-4-methylpentanoyloxy)-9,10-secopregna-5Z,7E,10(19)-trien-1,3-diol], the EC50 in data set [1] turned out to be 1.1 nM.

`C=C1C(=CC=C2CCCC3(C)C2CCC3C(C)OC(=O)CC(O)(C(F)(F)F)C(F)(F)F)CC(O)CC1O` [Compound of Example 7, (1S,3R,20S)-20-[4,4,4-Trifluoro-3-hydroxy-3-(trifluoromethyl)butanoyloxy]-9,10-secopregna-5Z,7E,10(19)-trien-1,3-diol]: the EC50 in data set [1] amounted to 0.44 nM.

For `C=C1/C(=C\C=C2/CCC[C@]3(C)[C@@H]([C@H](C)OC(=O)/C=C/C(C)(C)O)CC[C@@H]23)C[C@@H](O)C[C@@H]1O` [Compound of Example 8, (1S,3R,20S)-20-[(2E)-4-Hydroxy-4-methylpent-2-enoyloxy]-9,10-secopregna-5Z,7E,10(19)-trien-1,3-diol], the EC50 in data set [1] is 3.1 nM. In data set [5], the “Urinary excretion of calcium” value stood at 0.89 mg and the “Ratio of urinary excretion of calcium (to Control)” value stood at 125%. The “Metabolic Rate” value in data set [4] was found to be 38 pmol/min/mg.

Turning to `C=C1C(=CC=C2CCCC3(C)C2CCC3C(C)OC(=O)C=CC(O)(CC)CC)CC(O)CC1O` [Compound of Example 10, (1S,3R,20S)-20-[(2E)-4-Ethyl-4-hydroxyhex-2-enoyloxy]-9,10-secopregna-5Z,7E,10(19)-trien-1,3-diol], the EC50 in data set [1] was 1.2 nM. The “Metabolic Rate” value in data set [4] is recorded as 58 pmol/min/mg.

On to `C=C1C(=CC=C2CCCC3(C)C2CCC3C(C)OC(=O)CC(CC)C(C)O)CC(O)CC1O` [Compound of Example 12, (1S,3R,20S)-20-(3-Ethyl-4-hydroxypentanoyloxy)-9,10-secopregna-5Z,7E,10(19)-trien-1,3-diol], for which, in data set [1], the EC50 came to 4.2 nM.

In the case of `C=C1C(=CC=C2CCCC3(C)C2CCC3C(C)OC(=O)CCC(O)(CC)CC)CC(O)CC1O` [Compound of Example 13, (1S,3R,20S)-20-(4-Ethyl-4-hydroxyhexanoyloxy)-9,10-secopregna-5Z,7E,10(19)-trien-1,3-diol], in data set [1], the EC50 stood at 2.3 nM. For the same molecule, in data set [4], the “Metabolic Rate” value is 38 pmol/min/mg.

Regarding `C=C1C(=CC=C2CCCC3(C)C2CCC3C(C)OC(=O)CN(C)CC(C)(C)O)CC(O)CC1O` [Compound of Example 19, (1S,3R,20S)-20-[N-(2-Hydroxy-2-methylpropyl)-N-methyl-2-aminoacetyloxy]-9,10-secopregna-5Z,7E,10(19)-trien-1,3-diol], the EC50 in data set [1] was found to be 4 nM.

As for `C=C1C(=CC=C2CCCC3(C)C2CCC3C(C)OC(=O)CCC2(O)CCCC2)CC(O)CC1O` [Compound of Example 20, (1S,3R,20S)-20-[3-(1-Hydroxycyclopentyl)propanoyloxy]-9,10-secopregna-5Z,7E,10(19)-trien-1,3-diol], the EC50 in data set [1] turned out to be 1.7 nM. Further, the “Metabolic Rate” value in data set [4] is on record as 39 pmol/min/mg.

In the case of `C=C1C(=CC=C2CCCC3(C)C2CCC3C(C)OC(=O)CC(=O)C(C)(C)O)CC(O)CC1O` [Compound of Example 27, (1S,3R,20S)-20-(4-Hydroxy-4-methyl-3-oxo-pentanoyloxy)-9,10-secopregna-5Z,7E,10(19)-trien-1,3-diol], the EC50 in data set [1] was 3 nM.

Regarding `C=C1C(=CC=C2CCCC3(C)C2CCC3C(C)OC(=O)CC(=O)C(O)(CC)CC)CC(O)CC1O` [Compound of Example 28, (1S,3R,20S)-20-(4-Ethyl-4-hydroxy-3-oxo-hexanoyloxy)-9,10-secopregna-5Z,7E,10(19)-trien-1,3-diol], the EC50 in data set [1] stood at 2.5 nM.

For the molecule “(1S,3R,20S)-20-(5-Hydroxy-5-methylheptanoyloxy)-9,10-secopregna-5Z,7E,10(19)-trien-1,3-diol [Compound of Example 11]”, in data set [1], the EC50 came to 4.3 nM. Further, the “Metabolic Rate” value in data set [4] is reported as 23 pmol/min/mg.

The values above are taken from patent US20100130454A1, “9,10-SECOPREGNANE DERIVATIVES AND MEDICINE” (NIPPON SHINYAKU CO., LTD., priority 2004, published 2010).
